Experimental data published in patent US20220088144A1, “SGLT-2 INHIBITORS OR IL-1R ANTAGONISTS FOR REDUCTION OF HYPOGLYCAEMIA AFTER BARIATRIC SURGERY” (UNIVERSITÄTSSPITAL BASEL, priority 2019, published 2022).

What was measured:
[1] = tested on: patients after bariatric surgery with post-prandial hypoglycaemia; assay: Mixed-meal test: insulin, c-peptide, GLP-1, glucagon, insulin secretion and sensitivity indices; assay type: in vivo, human; conditions: for insulin AUC, estimate vs placebo: FIG. 5e; for insulin AUC, estimate vs placebo / c-peptide, estimate vs placebo / insulin, estimate vs placebo / insulin secretion index, effect estimate vs placebo: linear mixed effect model; for c-peptide, estimate vs placebo: FIG. 5f; for c-peptide, estimate vs placebo / insulin, estimate vs placebo: log-transformed outcome; for insulin, estimate vs placebo: FIG. 5d; for insulin secretion index, effect estimate vs placebo: placebo average 108.0 pmol/mmol; for Whole body insulin sensitivity index / Insulin secretion index: median, n=12; for Whole body insulin sensitivity index: placebo 38.0, single dose before mixed meal; for Insulin secretion index: placebo 104.6, single 10 mg empagliflozin oral 2 h or 100 mg anakinra s.c. 3 h before mixed meal; for insulin secretion / insulin release and c-peptide secretion over time: vs placebo
Text: The 12 subjects were randomly assigned into six groups consisting of two subjects receiving study medication in a double-blind, crossed-over manner as outlined in FIG. 2. Patients need to be sober at least eight hours before ingestion of mixed-meal. To ensure that fasting period is not too long, patients receive a small late evening meal consisting of 4 DarVida Natural Crackers as well as 3 Sinergy® drops (see Appendix for specific contents) or are alternatively pleased to have their dinner at around 10 pm. Treatment consists of a single subcutaneous injection of 100 mg Anakinra (Kineret®) or matched placebo three hours before ingestion of the mixed-meal and of a single oral tablet of 10 mg of empagliflozin (Jardiance®) or matched placebo two hours before mixed-meal at each study day. Patients were randomised to receive in different sequences either (1) anakinra and an oral placebo to empagliflozin, (2) empagliflozin and a subcutaneous placebo (0.67 ml 0.9% saline) to anakinra or (3) double placebo. Participants, investigators and study nurses were blinded to the study drug.
The secondary objectives are to evaluate whether treatment of empagliflozin (Jardiance®) or anakinra (Kineret®) have effects on the following aspects: • level of insulin secretion and sensitivity • levels of GLP-1, glucagon and C-peptide • levels of IL-6; IL-1Ra, CRP • scores in Edinburgh Hypoglycaemia Scale (clinical score for assessment of hypoglycemia), Stanford Sleepiness Scale (clinical score of assessment of sleepiness) as well as Sigstad Score (clinical score for early and late dumping symptoms) • Length of time and amount of glucose needed for restoring normoglycemia.
Insulin secretion was measured using standard insulin ELISA.
Statistical analysis for this proof-of-concept translational clinical trial was done on a per-protocol basis. Sample size was based on practical considerations due to the lack of pre-existing data for this intervention. All analyses are to be considered exploratory. Analysis of continuous dependent outcome variables (e.g. glucose, insulin, c-peptide, GLP-1, glucagon, insulin secretion index and sensitivity, IL-1p, IL-6, IL-8, TNFα), was done using linear mixed effect models fit by maximum likelihood. Analysis of the binary dependent outcome variables occurrence of severe hypoglycemia requiring glucose rescue and occurrence of composite score ≥6 on the Edinburgh Hypoglycemia Scale was done using a generalized linear additive mixed effect model fit by maximum likelihood (Laplace approximation). Models were fit including fixed effects for categorical variables such as gender, the occurrence of hypoglycemia, treatment and in case of values measured in cell culture supernatants, activation status (non-stimulated, LPS-simulated), as well as the continuous variables time and BMI as indicated. A random-effect for patient was equally included (random by-subject intercepts, fixed slopes). Models were computed using the R “Ime4” and “gamm4” packages. • Individual models were visually assessed for the presence of heteroscedasticity, collinearity and normality of residuals. […] For visual representation, log-transformed outcome values were back-transformed to their initial values.
Treatment effects are presented in Table 6 as mean effect size estimates with 95% CIs, test-statistics and multiple comparison adjusted p-values (=FDR values). • Missing values for insulin (n=1), GLP-1 (n=4) and glucagon (n=5) were assumed to be missing at random and imputed using multiple imputation with the R-package “mice”. Inferential statistical analyses were done using R version 3.5.2. Descriptive statistics were done with GraphPad Prism8 version 8.0.1(145). […]

bulk monocytes = assay: Ex vivo cytokine-secretion assay of monocytes isolated from treated patients; assay type: cell-based, human; conditions: for IL-1 beta in monocyte supernatant, estimate vs placebo: FIG. 9a; for IL-1 beta in monocyte supernatant, estimate vs placebo / IL-6 in monocyte supernatant, estimate vs placebo / TNFalpha in monocyte supernatant, estimate vs placebo: post-meal, no-hypo vs placebo, no-hypo, non-stimulated; for IL-6 in monocyte supernatant, estimate vs placebo: FIG. 9b; for TNFalpha in monocyte supernatant, estimate vs placebo: FIG. 9c; for postprandial increase in inflammatory cytokine secretion (IL-1β, IL-6, TNF-α) by monocytes: ex vivo culture 18 h, compared to placebo
Protocol: In order to evaluate if changes at RNA level translated into protein expression, the inventors cultured monocytes isolated as described for RNA sequencing for a period of 18 h and measured pro-inflammatory cytokines in cell culture supernatants. […] In line with the reasoning, it has been shown that monocytes taken from an inherently pro-inflammatory milieu (septic shock), express increased mRNA levels of various inflammatory cytokines and chemokines (IL-1β, IL-1α, IL-6, CCL2), but release markedly lower levels of protein following ex vivo stimulation with LPS.
Blood samples were taken before and 60 minutes after meal intake. Due to scheduling conflicts, samples from two patients could not be processed. These samples are thus assumed to be missing at random. Of note, samples from patient 3 (sleeve gastrectomy) had already been processed for RNA sequencing before the final change of protocol. Sequencing data obtained from this patient were thus kept for the purpose of these analyses. Peripheral blood mononuclear cells were obtained by Ficoll density gradient centrifugation (Lymphoprep Fresenius Kabi, Norway). For 9 out of 11 patients, an additional step was added after density gradient centrifugation to pre-enrich monocytes by negative selection with CD3 human MicroBeads (#130-050-101; Miltenyi Biotec). The obtained cellular monocyte fractions were then incubated with FC-Block for 15 minutes at room temperature [(Human FcR TruStain FcX (Biolegend) REF 422302, compatible with flow cytometric staining with anti-human CD16 (clone 3G8)], and subsequently labeled with the following antibodies: APC Mouse anti-Human CD3 [HIT3a alpha] (#555342; BD Biosciences), FITC Mouse Anti-Human CD19 [HIB19 RUO] (#560994; BD Biosciences), PE-Cy5 Mouse Anti-Human CD56 [B159 RUO] (#560842; BD Biosciences), PE Mouse Anti-Human CD16 [3G8 RUO] (#560995; BD Biosciences), APC-Cy7 Mouse Anti-Human CD14 [MφP-9 RUO] (#561709; BD Biosciences).
Cells were then further enriched into the three monocyte subsets by fluorescence-activated cell sorting on a BD FACS-Aria III. Classical monocytes were defined as: single, live, CD56− CD19−CD3−CD14+CD16−, Intermediate monocytes were defined as: single, live CD56−CD19− CD3−CD14+CD16+ and non-classical monocytes were defined as: single, live CD56−CD19− CD3−CD14−CD16+. Bulk monocytes were defined as a combination-gate of the three subsets. For a representative example of the gating strategy see FIG. 13.
Bulk monocytes obtained as described above were resuspended in fresh medium (RPMI-1640 (containing 11 mM Glucose, #31870-025; GIBCO) containing 200 U/ml penicillin, 200 U/ml streptomycin (Pen/Strep, #15140; GIBCO), 2 mM Glutamax (#35050061; GIBCO), 1 mM NaPyruvat (#11360-039; GIBCO), 1×MeM (#11140050; Sigma) and 10% FCS (#10500; Invitrogen)) at a density of 50'000 cells/well in a standard 96-well U-bottom plate. For each patient-visit sample, monocytes pre- and post-liquid mixed-meal were either left unstimulated (baseline condition) or activated with LPS (LPS-SM, #tlrl-smlps, Invivogen=activated condition) at a concentration of 5 ng/ml in duplicates. Thus, treated cells were then incubated for a period of 18 hours at 37° C. and 5% CO2 followed by harvesting of cell supernatants. Cytokine concentrations were determined in cell supernatants using the V-PLEX Human Proinflammatory Panel II (4-Plex) kit (Mesoscale Discovery) according to the manufacturer's instructions (Alternate Protocol 1, Extended Incubation). Two patients had to be excluded from analysis due to technical problems.

Compound	insulin AUC, estimate vs placebo [1]	c-peptide, estimate vs placebo [1]	insulin, estimate vs placebo [1]	insulin secretion index, effect estimate vs placebo [1] [pmol/mmol]	Whole body insulin sensitivity index [1]	Insulin secretion index [1]	insulin secretion / insulin release and c-peptide secretion over time [1]	IL-1 beta in monocyte supernatant, estimate vs placebo (bulk monocytes)	IL-6 in monocyte supernatant, estimate vs placebo (bulk monocytes)	TNFalpha in monocyte supernatant, estimate vs placebo (bulk monocytes)	postprandial increase in inflammatory cytokine secretion (IL-1β, IL-6, TNF-α) by monocytes (bulk monocytes)
OC[C@H]1O[C@@H](c2ccc(Cl)c(Cc3ccc(O[C@H]4CCOC4)cc3)c2)[C@H](O)[C@@H](O)[C@@H]1O [empagliflozin]	−19.32	−0.2237	−0.852	−10.8	84.6	99.2	reduced	−3395.36	−18937.7	−453.496	significantly inhibited
anakinra: CAS NO 143090-92-0; recombinant, non-glycosylated form of the human interleukin-1 receptor antagonist (IL-1 Ra), 153 amino acids	−13.9	−0.0912	−0.266	−18.5	72.1	91.6	reduced	−2426.73	−17208.1	−452.659	significantly inhibited
